Experiments:
[1] = Metabolic stability in human liver microsomes, unbound intrinsic clearance; type: in vitro ADME; conditions: liver microsomes, pH 7.4; unbound intrinsic clearance (human); Clint unbound = Cl int/fu mic; read-out: Cl int, mic unb. (h)
Method: Samples of the tested compounds (0.5 μM) were preincubated together with human liver microsomes (0.25 mg of microsomal protein/mL) in 0.05 M potassium phosphate buffer of pH 7.4 in microtiter plates at 37° C. for 5 minutes. The reaction was started by adding NADPH (1.0 mM). After 0, 5, 10, 15, 20 and 30 minutes, an aliquot was removed, the reaction was cooled and stopped by adding twice the amount of quench solution consisting of acetonitrile/methanol 1:1, and containing 0.2 μM carbutamide as internal standard. The samples were frozen until analyzed. The remaining concentration of undegraded test substance was determined by liquid chromatography-tandem mass spectrometry (LC-MS/MS). The half-life (t1/2) was determined from the gradient of the ratio of the signal of (test substance/internal standard)/unit time plot, allowing the calculation of the half-life of the test substance, assuming first order kinetics, from the decrease in the concentration of the compound with time. The microsomal clearance (mClint) was calculated as follows: mClint=((ln(2)/t ½)/Microsomal Protein Concentration (mg/ml))*1000, leading to the unit of uL/min/mg. The scaled clearance (mClin_scaled) was calculated as mCLint_scaled=m CLint*(Microsomal Yield (mg/kg BW))/1000000*60, leading to the units L/h/kg. The Microsomal Yield is defined by the specifics of the used microsomes. Calculations were modified from references: Di, The Society for Biomolecular Screening, 2003, 453-462; Obach, D M D, 1999 vol 27. N 11, 1350-1359.
Calculation of Unbound Intrinsic Clearance
C1int unbound=C1 int/fu mic

human 5-HT2A receptor = target: T1, human 5-HT2A receptor (Homo sapiens, UniProt P28223); assay: Human 5-HT2A functional assay (calcium mobilisation in CHO-K1 cells, FLIPR); type: cell-based; conditions: based on agonism: EC50 5-HT2A/EC50 5-HT2C
T1 construct: expressed in transfected cells; host or cells: CHO-K1
T1 sequence (P28223 whole entry): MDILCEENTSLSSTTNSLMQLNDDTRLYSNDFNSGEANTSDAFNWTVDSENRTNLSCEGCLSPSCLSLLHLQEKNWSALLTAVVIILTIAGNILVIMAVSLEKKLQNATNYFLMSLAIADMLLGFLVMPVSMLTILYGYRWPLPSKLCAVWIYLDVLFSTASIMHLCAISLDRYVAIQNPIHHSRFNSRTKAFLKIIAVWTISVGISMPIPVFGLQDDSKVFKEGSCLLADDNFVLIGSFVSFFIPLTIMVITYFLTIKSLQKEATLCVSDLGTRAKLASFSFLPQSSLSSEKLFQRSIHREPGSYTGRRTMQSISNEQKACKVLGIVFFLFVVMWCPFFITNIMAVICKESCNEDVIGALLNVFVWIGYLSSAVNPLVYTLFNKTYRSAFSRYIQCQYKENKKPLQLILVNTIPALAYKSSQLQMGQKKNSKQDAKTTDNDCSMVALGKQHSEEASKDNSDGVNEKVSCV
Method: 2. Human 5-HT2A Functional Assay
Functional activity on the 5-HT2A receptor was determined by testing the effect of the compounds I on calcium mobilisation in CHO-K1 cells, stably transfected with human 5-HT2A receptor. Cells were seeded into sterile black 384-well plates with clear bottom at 25,000 cells/well in a volume of 25 μl and grown for 5-6 hours at 37° C., in 5% CO2 in tissue culture medium (“Ultra CHO” by LONZA), containing 1% dialysed FCS and 50 μg/ml gentamicin (Invitrogen). After this incubation, medium was replaced by a serum free version of the same tissue culture medium followed by incubation overnight at 37° C. and in 5% CO2. Cells were then loaded with a fluorescent calcium-sensitive dye in the presence of 0.07% probenecid for an hour at 37° C., according to the manufacturer's protocol (Ca5-Assay Kit, Molecular Devices), followed by an additional 60 min incubation at room temperature. Serial compound dilutions (final concentrations of 10^−10 to 10^−5M, prepared in HBSS+50 mM HEPES) were first added to the cells alone (“first addition” to assess agonism on the 5-HT2A receptor), then after 8 min, serotonin was added to the same wells at a final concentration of 3×10^−8 M (“second addition” to see potential antagonistic effect) and the maximal calcium response was determined using a FLIPR® Tetra instrument (Molecular Devices) in each of the two steps. The relative efficacy of the compounds was calculated as a percentage of the maximal effect induced by serotonin alone (defined as 100%). To determine EC50/IC50 values, concentration-response curves were fitted using a four-parameter logistic equation (IDBS Biobookml). Kb values were calculated from IC50 values, according to Cheng & Prusoff

human 5-HT2B receptor = target: T2, human 5-HT2B receptor (Homo sapiens, UniProt P41595); assay: Human 5-HT2B functional assay (calcium mobilisation in CHO-FlpIn cells, FLIPR); type: cell-based; conditions: based on agonism: EC50 5-HT2B/EC50 5-HT2C
T2 construct: expressed in transfected cells; host or cells: CHO-FlpIn
T2 sequence (P41595 whole entry): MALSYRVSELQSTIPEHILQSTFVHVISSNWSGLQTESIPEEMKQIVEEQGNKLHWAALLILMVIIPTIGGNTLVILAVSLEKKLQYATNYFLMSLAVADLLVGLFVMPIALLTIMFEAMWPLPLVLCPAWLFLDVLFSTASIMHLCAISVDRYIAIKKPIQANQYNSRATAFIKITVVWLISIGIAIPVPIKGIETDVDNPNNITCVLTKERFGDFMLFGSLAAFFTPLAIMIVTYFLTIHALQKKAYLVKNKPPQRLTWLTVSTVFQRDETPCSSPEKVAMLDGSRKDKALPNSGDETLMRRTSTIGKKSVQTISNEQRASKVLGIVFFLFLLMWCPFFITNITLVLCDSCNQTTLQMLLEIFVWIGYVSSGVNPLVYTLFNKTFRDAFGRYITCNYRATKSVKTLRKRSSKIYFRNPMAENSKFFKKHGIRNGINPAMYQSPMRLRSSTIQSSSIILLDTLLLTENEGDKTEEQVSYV
Method: 3. Human 5-HT2B Functional Assay
Functional activity on the 5-HT2B receptor was determined by testing the effect of the compounds I on calcium mobilisation in CHO-FlpIn cells, stably transfected with human 5-HT2B receptor. Cells were seeded into sterile black 384-well plates with clear bottom at 30,000 cells/well in a volume of 25 μl and grown overnight at 37° C., in 5% CO2 in tissue culture medium (“CHO-S-SFM II” by Invitrogen), containing 1% dialysed FCS and 50 μg/ml gentamicin (Invitrogen). On the next morning, medium was replaced by a serum free version of the same tissue culture medium for a further incubation for 4 hours at 37° C. and in 5% CO2. Cells were then loaded with a fluorescent calcium-sensitive dye in the presence of 0.07% probenecid for an hour at 37° C., according to the manufacturer's protocol (Ca5-Assay Kit, Molecular Devices), followed by an additional 60 min incubation at room temperature. Serial compound dilutions (final concentrations of 10^−10 to 10^−5M, prepared in HBSS+50 mM HEPES) were first added to the cells alone (“first addition” to assess agonism on the 5-HT2B receptor), then after 8 min, serotonin was added to the same wells at a final concentration of 10^−8 M (“second addition” to see potential antagonistic effect) and the maximal calcium response was determined using a FLIPR® Tetra instrument (Molecular Devices) in each of the two steps. The relative efficacy of the compounds was calculated as a percentage of the maximal effect induced by serotonin alone (defined as 100%). To determine EC50/IC50 values, concentration-response curves were fitted using a four-parameter logistic equation (IDBS Biobookml). Kb values were calculated from IC50 values, according to Cheng & Prusoff

5-HT2C receptor = target: T3, 5-HT2C receptor (Homo sapiens, UniProt P28335); assay: Human 5-HT2C functional assay (beta-arrestin2 recruitment, U2OS_HTR2C_β-Arrestin cells); type: cell-based; conditions: for EC50: Potency (EC50 5-HT2C) in functional assay, agonism, read-out: EC50 5-HT2C; for Emax: relative efficacy vs maximal effect induced by 5-HT (defined as 100%)
T3 construct: host or cells: U2OS
T3 sequence (P28335 33-458): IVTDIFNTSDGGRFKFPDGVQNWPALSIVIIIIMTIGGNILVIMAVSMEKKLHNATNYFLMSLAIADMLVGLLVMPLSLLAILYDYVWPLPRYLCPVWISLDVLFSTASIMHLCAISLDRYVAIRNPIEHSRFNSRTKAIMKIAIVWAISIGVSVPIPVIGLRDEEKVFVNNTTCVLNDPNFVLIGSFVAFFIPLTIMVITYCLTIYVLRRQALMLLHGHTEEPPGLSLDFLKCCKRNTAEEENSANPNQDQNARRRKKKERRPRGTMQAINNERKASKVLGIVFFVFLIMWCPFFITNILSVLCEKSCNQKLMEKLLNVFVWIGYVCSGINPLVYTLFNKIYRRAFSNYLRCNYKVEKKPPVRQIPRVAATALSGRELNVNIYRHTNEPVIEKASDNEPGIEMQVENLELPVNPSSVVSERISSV
T3 sequence (P32121 whole entry partner): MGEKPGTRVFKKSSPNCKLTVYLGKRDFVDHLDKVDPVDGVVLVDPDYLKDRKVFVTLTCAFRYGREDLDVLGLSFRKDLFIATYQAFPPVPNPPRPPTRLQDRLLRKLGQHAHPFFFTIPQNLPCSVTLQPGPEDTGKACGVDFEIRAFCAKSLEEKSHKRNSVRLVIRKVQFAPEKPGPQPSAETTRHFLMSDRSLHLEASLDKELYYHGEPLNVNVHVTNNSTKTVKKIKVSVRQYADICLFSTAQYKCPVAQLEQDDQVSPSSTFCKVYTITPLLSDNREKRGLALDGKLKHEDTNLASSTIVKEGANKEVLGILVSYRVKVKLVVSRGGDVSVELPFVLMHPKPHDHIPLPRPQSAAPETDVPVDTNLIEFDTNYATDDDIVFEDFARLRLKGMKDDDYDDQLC
Method: 1. Human 5-HT2C Functional Assay
The functional activity of compounds of formula I was assayed by incubation with U2OS_HTR2C_β-Arrestin cells (DiscoverX, 93-0289C3) to induce beta-arrestin2 recruitment to the 5-HT2C receptor. The agonist-induced recruitment and proximity of the receptor and beta-arrestin2 leads to complementation and formation of active β-galactosidase. The enzyme complementation results in enzyme activity, which is measured following the termination of the agonist incubation using DiscoveRx's detection reagent, which contains a chemiluminescent substrate which produces a high intensity signal. Cells were plated and a medium-change to a 1% serum containing medium was performed 24 h later. The next day, test compounds were added and incubated for 1.5 h before addition of detection reagent.
The response produced was measured and compared with the response produced by 10 [mu]M 5-HT or the maximal effect induced by 5-HT (defined as 100%) to which it was expressed as a percentage response (relative efficacy).

Row | Structure (SMILES) | CLint scaled at 0.5 μM [1] [mL/min/kg] | Selectivity over 5-HT2A (human 5-HT2A receptor) | Selectivity over 5-HT2B (human 5-HT2B receptor) | EC50 (5-HT2C receptor) [nM] | Emax (5-HT2C receptor) [%]
1 | Cl.Fc1cc(Cl)c2c(c1)N1CCNC[C@H]1C[C@@H](COC(F)F)O2 [Example 24, (4aR,6S)-8-Chloro-6-(difluoromethoxymethyl)-10-fluoro-2,3,4,4a,5,6-hexahydro-1H-pyrazino[2,1-d][1,5]benzoxazepine hydrochloride] | 83.3 to 833 | +++ (>100) | ++ (from >30 to 100) | 20 to 200 | 50 to 70
2 | C#Cc1cc(F)c(F)c2c1O[C@H](COC)C[C@@H]1CNCCN21.Cl [Example 40, (4aR,6S)-8-Ethynyl-10,11-difluoro-6-(methoxymethyl)-2,3,4,4a,5,6-hexahydro-1H-pyrazino[2,1-d][1,5]benzoxazepine hydrochloride] | < 83.3 | +++ (>100) | + (from 10 to 30) | < 20 | > 70
3 | COC[C@@H]1C[C@@H]2CNCCN2c2c(F)cccc2O1.Cl [Example 54, (4aR,6S)-11-Fluoro-6-(methoxymethyl)-2,3,4,4a,5,6-hexahydro-1H-pyrazino[2,1-d][1,5]benzoxazepine hydrochloride] | < 83.3 | + (from 10 to 30) | + (from 10 to 30) | 200 to 1000 | 30 to 50
4 | Cc1ccc2c(c1F)O[C@H](CO)C[C@@H]1CNCCN21 [Example 39, [(4aR,6S)-8-Fluoro-9-methyl-2,3,4,4a,5,6-hexahydro-1H-pyrazino[2,1-d][1,5]benzoxazepin-6-yl]methanol] | < 83.3 | ++ (from >30 to 100) | ++ (from >30 to 100) | 20 to 200 | 50 to 70
5 | COC[C@H]1C[C@@H]2CNCCN2c2cccc(Cl)c2O1.O=C(O)C(F)(F)F [Example 2, (4aR,6R)-8-Chloro-6-(methoxymethyl)-2,3,4,4a,5,6-hexahydro-1H-pyrazino[2,1-d][1,5]benzoxazepine; 2,2,2-trifluoroacetic acid] | < 83.3 | +++ (>100) | +++ (>100) | 20 to 200 | 50 to 70
6 | COC[C@@H]1C[C@@H]2CNCCN2c2c(F)c(F)cc(C(F)(F)F)c2O1.Cl [Example 56, (4aR,6S)-10,11-Difluoro-6-(methoxymethyl)-8-(trifluoromethyl)-2,3,4,4a,5,6-hexahydro-1H-benzo[b]pyrazino[1,2-d][1,4]oxazepine hydrochloride] | < 83.3 | +++ (>100) | +++ (>100) | 20 to 200 | > 70
7 | COC[C@@H]1C[C@@H]2CNCCN2c2c(cc(F)c(F)c2F)O1.Cl [Example 47, (4aR,6S)-9,10,11-Trifluoro-6-(methoxymethyl)-2,3,4,4a,5,6-hexahydro-1H-pyrazino[2,1-d][1,5]benzoxazepine hydrochloride] | < 83.3 | +++ (>100) | +++ (>100) | 20 to 200 | > 70
8 | COC[C@@H]1C[C@@H]2CNCCN2c2c(F)c(OC)cc(C(F)F)c2O1.Cl [Example 29, (4aR,6S)-8-(Difluoromethyl)-11-fluoro-10-methoxy-6-(methoxymethyl)-2,3,4,4a,5,6-hexahydro-1H-pyrazino[2,1-d][1,5]benzoxazepine hydrochloride] | 83.3 to 833 | +++ (>100) | +++ (>100) | 20 to 200 | > 70
9 | Cl.[2H]C([2H])([2H])OC[C@@H]1C[C@@H]2CNCCN2c2cc(F)cc(Cl)c2O1 [Example 19, (4aR,6S)-8-Chloro-10-fluoro-6-(trideuteriomethoxymethyl)-2,3,4,4a,5,6-hexahydro-1H-pyrazino[2,1-d][1,5]benzoxazepine hydrochloride] | < 83.3 | +++ (>100) | ++ (from >30 to 100) | < 20 | > 70
10 | COC[C@@H]1C[C@@H]2CNCCN2c2cccc(Cl)c2O1.Cl [Example 1, (4aR,6S)-8-Chloro-6-(methoxymethyl)-2,3,4,4a,5,6-hexahydro-1H-pyrazino[2,1-d][1,5]benzoxazepine hydrochloride] | < 83.3 | +++ (>100) | +++ (>100) | < 20 | > 70
11 | COC[C@@H]1C[C@@H]2CNCCN2c2c(F)c(F)cc(C#N)c2O1.Cl [Example 28, (4aR,6S)-10,11-Difluoro-6-(methoxymethyl)-2,3,4,4a,5,6-hexahydro-1H-pyrazino[2,1-d][1,5]benzoxazepine-8-carbonitrile hydrochloride] | < 83.3 | ++ (from >30 to 100) | + (from 10 to 30) | 20 to 200 | > 70
12 | COC[C@@H]1C[C@@H]2CNCCN2c2c(F)c(F)cc(F)c2O1.O=C(O)/C=C/C(=O)O [Example 18, (4aR,6S)-8,10,11-Trifluoro-6-(methoxymethyl)-2,3,4,4a,5,6-hexahydro-1H-pyrazino[2,1-d][1,5]benzoxazepine; fumaric acid] | < 83.3 | +++ (>100) | +++ (>100) | 20 to 200 | > 70

From US20200002354A1, “HEXAHYDROPYRAZINOBENZ- OR -PYRIDO-OXAZEPINES CARRYING AN OXYGEN-CONTAINING SUBSTITUENT AND USE THEREOF IN THE TREATMENT OF 5-HT2C-DEPENDENT DISORDERS” (AbbVie Deutschland GmbH & Co. KG, priority 2015, published 2020)
